SMILES strings stand for the structures. Where two headings read alike, the source gives them in different places.

The test system of series [1] is Aphis Craccivora (cowpea aphid). The series can be described thus: Example B7: translaminar activity against Aphis craccivora. In kind it is in vivo. Particulars: 120 h, upper side of French bean leaves painted, 5 days. Here is the method: Translaminar Activity Against Aphis Craccivora (Cowpea Aphid)
French bean leaves (Phaseolus vulgaris) are infested with about 20 mixed age individuals on the lower leaf side using clip cages. 1 day after the infestation, the upper side of the leaves is treated with the test solution by painting. 5 days later, samples are checked for mortality.

The test system of series [2] is Myzus persicae (green peach aphid). Put plainly: Example B9: Myzus persicae on pepper or cabbage plants, feeding/residual contact activity. As to conditions: 144 h, 6 days, read-out: activity against Myzus persicae (mortality). In kind it is in vivo.
A further series deals with pepper plants. Particulars: in vivo, 6 days, 200 ppm. The procedure: (§1) (Mixed Population, Feeding/Residual Contact Activity, Plant Damage Evaluation)
(§2) Pepper [P] or cabbage […] plants infested with a mixed population of Myzus persicae are treated with diluted test solutions of the compounds in a spray chamber. 6 days after treatment, samples are checked for mortality and for plant damage (phytotoxicity), visual assessment being made using a 0-100% rating scale (100%=total damage to plant; 0%=no damage to plant).

Series [3] deals with Myzus persicae (green peach aphid). The series can be described thus: Example B8: drench activity against Myzus persicae. Particulars: soil, 168 h, read-out: activity (mortality), drench.
The test system of series [4] is Nilaparvata lugens (brown rice planthopper). Put plainly: Example B6: Nilaparvata lugens, larvicide, feeding/contact. As to conditions: in Oryza sativa, read-out: activity (mortality, growth regulation, effects on F1 generation).
Series [5] relates to Thrips tabaci (onion thrips). The series can be described thus: Example B3: Thrips tabaci, mixed population, feeding/residual contact activity, preventive. As to conditions: foliar, 144 h, read-out: activity (mortality).
For series [6], the system named is Tetranychus urticae (two-spotted spider mite). The series can be described thus: Example B4: Tetranychus urticae, mixed population, feeding/residual contact activity, preventive. Particulars: foliar, 192 h, read-out: activity (egg, larval and adult mortality).
Series [7] concerns Myzus persicae (green peach aphid). Put plainly: Example B2: Myzus persicae, mixed population, systemic/feeding activity, curative. As to conditions: 144 h, read-out: activity (mortality).
For series [8] the test system is unchanged. The series can be described thus: Example B1: Myzus persicae, mixed population, feeding/residual contact activity, preventive. Format: in vivo. As to conditions: foliar, 144 h, sprayed sunflower leaf discs, 6 days.
For the next series, the system named is cabbage plants. As to conditions: in vivo, 6 days, 200 ppm. Here is the method:
as §1, §2

For the compound `CON1CCC2(CC1)C(=O)C(c1c(C)cc(C)cc1C)C(=O)N2N(C)C` (centres unmarked) [A1, 1-Dimethylamino-8-methoxy-3-(2,4,6-trimethyl-phenyl)-1,8-diaza-spiro[4.5]decane-2,4-dione], the mortality at 400 ppm in series [1], in [4], in series [5] and in series [6] was more than 80% throughout. For the same compound, the mortality at 200 ppm in series [2] (pepper [P] plants sprayed) was not below 80%. Also, the “damage to pepper plants (phytotoxicity)” value with pepper plants is on record as not above 10%. Further, the mortality at 25 ppm in [3] is more than 80%.
With `CCOC(=O)OC1=C(c2c(C)cc(C)cc2C)C(=O)N(N(C)C)C12CCN(OC)CC2` [A2, Carbonic acid 1-dimethylamino-8-methoxy-2-oxo-3-(2,4,6-trimethyl-phenyl)-1,8-diaza-spiro[4.5]dec-3-en-4-yl ester ethyl ester], the mortality at 400 ppm in series [1], in [4], in [7] and in [6] was more than 80% throughout. Also, in [2] (pepper [P] plants sprayed), the mortality at 200 ppm is not below 80%. The “damage to pepper plants (phytotoxicity)” value in the series with pepper plants is not above 10%. Moreover, the mortality at 25 ppm in [3] is more than 80%.
Turning to `CON1CCC2(CC1)C(O)=C(c1c(C)cc(Cl)cc1C)C(=O)N2N(C)C` [A3], the mortality at 400 ppm in series [6] was more than 80%.
For the compound `CCOC(=O)OC1=C(c2c(C)cc(Cl)cc2C)C(=O)N(N(C)C)C12CCN(OC)CC2` [A4], the mortality at 400 ppm in series [8], in series [7] and in [6] was more than 80% in each case. Further, the mortality at 200 ppm in [2] (pepper [P] plants sprayed) is not below 80%. Moreover, the “damage to pepper plants (phytotoxicity)” value with pepper plants was not above 10%.
With `CON1CCC2(CC1)C(O)=C(c1cc(C)ccc1C)C(=O)N2N(C)C` [A5], the mortality at 200 ppm in series [2] (pepper [P] plants sprayed) is not below 80%. The “damage to pepper plants (phytotoxicity)” value with pepper plants is given as not above 10%.
For the compound `CON1CCC2(CC1)C(O)=C(c1c(C)cc(C)cc1C)C(=O)N2N1CCOCC1` [B1], the mortality at 400 ppm in series [8], in series [7] and in series [6] was more than 80% in each case. In addition, the mortality at 200 ppm in series [2] (cabbage [C] plants sprayed) was not below 80%. Also, in the series on cabbage plants, the “damage to cabbage plants (phytotoxicity)” value is not above 10%.
Consider `CCOC(=O)OC1=C(c2c(C)cc(C)cc2C)C(=O)N(N2CCOCC2)C12CCN(OC)CC2` [B2], for which the mortality at 400 ppm in series [8] and in [7] was more than 80% each time. The mortality at 200 ppm in series [2] (cabbage [C] plants sprayed) is not below 80%. Also, in the series with cabbage plants, the “damage to cabbage plants (phytotoxicity)” value was not above 10%.
Turning to `CON1CCC2(CC1)C(O)=C(c1c(C)cc(Cl)cc1C)C(=O)N2N1CCOCC1` [B3], the mortality at 400 ppm in series [8], in series [7] and in series [6] was more than 80% each time. Further, in series [2] (cabbage [C] plants sprayed), the mortality at 200 ppm was not below 80%. The “damage to cabbage plants (phytotoxicity)” value with cabbage plants is listed as not above 10%.
Turning to `CCOC(=O)OC1=C(c2c(C)cc(Cl)cc2C)C(=O)N(N2CCOCC2)C12CCN(OC)CC2` [B4], the mortality at 400 ppm in series [8], in [7] and in [6] was more than 80% in each case. The mortality at 200 ppm in series [2] (cabbage [C] plants sprayed) was not below 80%. Besides, the “damage to cabbage plants (phytotoxicity)” value in the series on cabbage plants is not above 10%.
Consider `CON1CCC2(CC1)C(O)=C(c1cc(C)ccc1C)C(=O)N2N1CCOCC1` [B5], for which the mortality at 200 ppm in series [2] (cabbage [C] plants sprayed) was not below 80%. The “damage to cabbage plants (phytotoxicity)” value with cabbage plants was not above 10%. For the same compound, the mortality at 400 ppm in series [7] is more than 80%.
For the compound `CCOC(=O)OC1=C(c2cc(C)ccc2C)C(=O)N(N2CCOCC2)C12CCN(OC)CC2` [B6], the mortality at 200 ppm in series [2] (cabbage [C] plants sprayed) is not below 80%. Further, the “damage to cabbage plants (phytotoxicity)” value in the series on cabbage plants is listed as not above 10%. In [7], the mortality at 400 ppm is more than 80%.

The record behind these values is patent publication US20130065756A1, “SPIROHETEROCYCLIC DIONE DERIVATIVES USED AS PESTICIDES” (SYNGENTA CROP PROTECTION LLC, priority 2009, published 2013).
